Experimental data published in patent publication US9845310B2 (priority 2015, dated 2017).
Like-named read-outs stand apart in the source and are kept apart here.

Target: APJ (Homo sapiens (Human), UniProt P35414)
Test: [35S]GTPγS binding assay on membranes from CHO cells stably expressing human APJ receptor
Format: biochemical
[1] = read-out: Activity hAPJ SPA EC50 IP

APJ, sequence (P35414 whole entry): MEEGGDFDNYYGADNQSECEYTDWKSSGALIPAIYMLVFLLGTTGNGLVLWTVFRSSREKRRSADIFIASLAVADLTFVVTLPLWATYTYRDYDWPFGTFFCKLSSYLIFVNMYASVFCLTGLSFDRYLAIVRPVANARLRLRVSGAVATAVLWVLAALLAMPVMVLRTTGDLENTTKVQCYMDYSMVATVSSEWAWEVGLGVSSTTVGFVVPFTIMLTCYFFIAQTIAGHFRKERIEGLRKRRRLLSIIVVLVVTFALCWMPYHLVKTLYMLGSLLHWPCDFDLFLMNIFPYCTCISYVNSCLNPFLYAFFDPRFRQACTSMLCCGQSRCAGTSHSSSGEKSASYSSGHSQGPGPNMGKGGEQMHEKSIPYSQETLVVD
Protocol: A GTPγS binding assay was performed on membranes prepared from CHO cells stably expressing human APJ receptor. The optimum experimental conditions for the concentrations of GDP, MgCl2, and NaCl in the assay buffer were initially determined. The assay was performed in assay buffer [20 mM HEPES, pH 7.5, 5 mM MgCl2, and 0.1% (w/v) BSA with 200 mM NaCl, 3 M GDP] and membranes expressing human APJ receptor/well along with WGA PS beads. The reaction was initiated by addition of 0.2 nM [^35S]GTPγS (Perkin Elmer Life and Analytical Sciences, Waltham USA) in the absence or presence of various ligands and incubated at RT for 90 min. Nonspecific binding was determined in the presence of 100 M GTPγS and was always less than 0.2% of total binding.

| Structure (SMILES) | EC50 (Activity hAPJ SPA EC50 IP (μM)) | EC50 [1] |
| --- | --- | --- |
| COc1cccc(-c2nnc(NS(=O)(=O)[C@@H](C)[C@H](C)c3ncc(F)cn3)n2-c2cn(C)c3ccccc23)n1 (racemic) [Example 451.0, (2S,3R)-3-(5-fluoro-2-pyrimidinyl)-N-(5-(6-methoxy-2-pyridinyl)-4-(1-methyl-1H-indol-3-yl)-4H-1,2,4-triazol-3-yl)-2-butanesulfonamide and (2R,3S)-3-(5-fluoro-2-pyrimidinyl)-N-(5-(6-methoxy-2-pyridinyl)-4-(1-methyl-1H-indol-3-yl)-4H-1,2,4-triazol-3-yl)-2-butanesulfonamide] | 0.045 µM |  |
| CC#C[C@@H](O)[C@H](C)S(=O)(=O)Nc1nnc(-c2cncc(C)c2)n1-c1c(OC)cccc1OC (racemic) [Example 764.0, (2R,3S)-N-(4-(2,6-dimethoxyphenyl)-5-(5-methyl-3-pyridinyl)-4H-1,2,4-triazol-3-yl)-3-hydroxy-4-hexyne-2-sulfonamide and (2S,3R)-N-(4-(2,6-dimethoxyphenyl)-5-(5-methyl-3-pyridinyl)-4H-1,2,4-triazol-3-yl)-3-hydroxy-4-hexyne-2-sulfonamide] | 0.027 µM |  |
| COc1cccc(-c2nnc(NS(=O)(=O)[C@@H](C)[C@H](OC(C)C)c3ncc(C)cn3)n2-c2c(OC)cccc2OC)n1 (single isomer, unassigned) [Example 96.0] | 0.00026 µM |  |
| COc1cccc(-c2nnc(NS(=O)(=O)[C@H](C)[C@@H](OC(C)C)c3ncc(C)cn3)n2-c2c(OC)cccc2OC)n1 (single isomer, unassigned) [Example 97.0] | 0.002 µM |  |
| COc1cccc(-c2nnc(NS(=O)(=O)[C@H](C)[C@H](OC(C)C)c3ncc(C)cn3)n2-c2c(OC)cccc2OC)n1 (single isomer, unassigned) [Example 98.0] | 0.0099 µM |  |
| COc1cccc(OC)c1-n1c(NS(=O)(=O)[C@@H](C)[C@H](C)c2ncc(F)cn2)nnc1-c1cccnc1 (single isomer, unassigned) [Example 183.0, (2R,3S)-N-(4-(2,6-dimethoxyphenyl)-5-(3-pyridinyl)-4H-1,2,4-triazol-3-yl)-3-(5-fluoro-2-pyrimidinyl)-2-butanesulfonamide or (2S,3R)-N-(4-(2,6-dimethoxyphenyl)-5-(3-pyridinyl)-4H-1,2,4-triazol-3-yl)-3-(5-fluoro-2-pyrimidinyl)-2-butanesulfonamide] | 0.06 µM |  |
| COc1cccc(OC)c1-n1c(NS(=O)(=O)[C@@H](C)[C@H](O)c2ccc(C#N)cc2)nnc1-c1cncc(C)c1 (single isomer, unassigned) [Example 249.0, (1R,2S)-1-(4-cyanophenyl)-N-(4-(2,6-dimethoxyphenyl)-5-(5-methyl-3-pyridinyl)-4H-1,2,4-triazol-3-yl)-1-hydroxy-2-propanesulfonamide or (1S,2R)-1-(4-cyanophenyl)-N-(4-(2,6-dimethoxyphenyl)-5-(5-methyl-3-pyridinyl)-4H-1,2,4-triazol-3-yl)-1-hydroxy-2-propanesulfonamide] |  | 0.0011 µM |
| COc1cnc([C@@H](OC)[C@H](C)S(=O)(=O)Nc2nnc(-c3cncc(C)c3)n2-c2c(OC)cccc2OC)cn1 (single isomer, unassigned) [Example 310.0] | 0.00066 µM |  |
| CCO[C@@H](c1cnc(C)cn1)[C@@H](C)S(=O)(=O)Nc1nnc(-c2cccc(OC)n2)n1-c1c(OC)cccc1OC (single isomer, unassigned) [Example 588.0, (1S,2R)-N-(4-(2,6-dimethoxyphenyl)-5-(6-methoxy-2-pyridinyl)-4H-1,2,4-triazol-3-yl)-1-ethoxy-1-(5-methyl-2-pyrazinyl)-2-propanesulfonamide or (1R,2S)-N-(4-(2,6-dimethoxyphenyl)-5-(6-methoxy-2-pyridinyl)-4H-1,2,4-triazol-3-yl)-1-ethoxy-1-(5-methyl-2-pyrazinyl)-2-propanesulfonamide] |  | 0.00052 µM |
| CCO[C@@H](c1cnc(C)cn1)[C@@H](C)S(=O)(=O)Nc1nnc(-c2cccc(OC)n2)n1-c1c(OC)cccc1OC (single isomer, unassigned) [Example 589.0, (1S,2R)-N-(4-(2,6-dimethoxyphenyl)-5-(6-methoxy-2-pyridinyl)-4H-1,2,4-triazol-3-yl)-1-ethoxy-1-(5-methyl-2-pyrazinyl)-2-propanesulfonamide or (1R,2S)-N-(4-(2,6-dimethoxyphenyl)-5-(6-methoxy-2-pyridinyl)-4H-1,2,4-triazol-3-yl)-1-ethoxy-1-(5-methyl-2-pyrazinyl)-2-propanesulfonamide] |  | 0.02 µM |
| COc1cccc(OC)c1-n1c(NS(=O)(=O)[C@@H](C)Cc2ncc(F)cn2)nnc1-c1cccc(C)n1 (single isomer, unassigned) [Example 619.0, (S)-N-(4-(2,6-dimethoxyphenyl)-5-(6-methylpyridin-2-yl)-4H-1,2,4-triazol-3-yl)-1-(5-fluoropyrimidin-2-yl)propane-2-sulfonamide or (R)-N-(4-(2,6-dimethoxyphenyl)-5-(6-methylpyridin-2-yl)-4H-1,2,4-triazol-3-yl)-1-(5-fluoropyrimidin-2-yl)propane-2-sulfonamide] | 0.0015 µM |  |
| COc1cccc(OC)c1-n1c(NS(=O)(=O)[C@@H](C)[C@H](OC)c2ncc(C)o2)nnc1-c1cncc(C)c1 (single isomer, unassigned) [Example 632.0, (1S,2R)-N-(4-(2,6-dimethoxyphenyl)-5-(5-methylpyridin-3-yl)-4H-1,2,4-triazol-3-yl)-1-methoxy-1-(5-methyloxazol-2-yl)propane-2-sulfonamide or (1R,2S)-N-(4-(2,6-dimethoxyphenyl)-5-(5-methylpyridin-3-yl)-4H-1,2,4-triazol-3-yl)-1-methoxy-1-(5-methyloxazol-2-yl)propane-2-sulfonamide] |  | 0.21 µM |
| COc1cccc(OC)c1-n1c(NS(=O)(=O)[C@@H](C)[C@H](OC)c2ncc(C)o2)nnc1-c1cncc(C)c1 (single isomer, unassigned) [Example 633.0, (1S,2R)-N-(4-(2,6-dimethoxyphenyl)-5-(5-methylpyridin-3-yl)-4H-1,2,4-triazol-3-yl)-1-methoxy-1-(5-methyloxazol-2-yl)propane-2-sulfonamide or (1R,2S)-N-(4-(2,6-dimethoxyphenyl)-5-(5-methylpyridin-3-yl)-4H-1,2,4-triazol-3-yl)-1-methoxy-1-(5-methyloxazol-2-yl)propane-2-sulfonamide] |  | 0.0069 µM |
| COc1cccc(OC)c1-n1c(NS(=O)(=O)[C@@H](C)[C@H](C)c2ncc(F)c([C@@H]3COCCO3)n2)nnc1-c1cccc(OCC(O)(C(F)(F)F)C(F)(F)F)n1 (single isomer, unassigned) [Example 639.0] |  | 0.16 µM |
| COc1cccc(OC)c1-n1c(NS(=O)(=O)[C@@H](C)[C@H](C)c2ncc(F)c([C@@H]3COCCO3)n2)nnc1-c1cccc(OCC(O)(C(F)(F)F)C(F)(F)F)n1 (single isomer, unassigned) [Example 640.0] |  | 0.33 µM |
| COc1cccc(OC)c1-n1c(NS(=O)(=O)[C@@H]2CCCO[C@@H]2c2ncc(C)cn2)nnc1-c1cncc(C)c1 (single isomer, unassigned) [Example 643.0] |  | 0.15 µM |
| COc1cccc(OC)c1-n1c(NS(=O)(=O)[C@@H]2CCCO[C@@H]2c2ncc(C)cn2)nnc1-c1cncc(C)c1 (single isomer, unassigned) [Example 644.0] |  | 0.18 µM |
| COc1cccc(OC)c1-n1c(NS(=O)(=O)[C@@H]2CCCO[C@@H]2c2ncc(C)cn2)nnc1-c1cncc(C)c1 (single isomer, unassigned) [Example 645.0] |  | 0.06 µM |
